# Data from DBAASP.
# How the values were obtained:
# Assay in all cases: ≥ marks a high value that may be exact or a test limit, other limits are often not marked, values filed in µg/mL are converted to µM
# Pseudomonas aeruginosa = tested on: Pseudomonas aeruginosa
# [1] = tested on: Staphylococcus aureus ATCC 6538P
# Staphylococcus aureus = tested on: Staphylococcus aureus
# Escherichia coli JM109 = tested on: Escherichia coli JM109
# Salmonella typhimurium = tested on: Salmonella typhimurium
# [2] = tested on: Staphylococcus epidermidis
# Micrococcus luteus = tested on: Micrococcus luteus
# Proteus mirabilis = tested on: Proteus mirabilis
# Escherichia coli = tested on: Escherichia coli
# Klebsiella pneumoniae = tested on: Klebsiella pneumoniae
# Shigella dysenteriae = tested on: Shigella dysenteriae
# Bacillus subtilis = tested on: Bacillus subtilis
# [3] = tested on: Enterococcus faecalis NCTC 12697
# [4] = tested on: Bacillus subtilis ATCC 6633
# [5] = tested on: Shigella dysenteriae ATCC 9752
# [6] = tested on: Klebsiella pneumoniae ATCC 10031
# [7] = tested on: Escherichia coli ATCC 25922
# [8] = tested on: Pseudomonas aeruginosa ATCC 27853
# [9] = tested on: Salmonella enterica subsp. enterica serovar Typhimurium ATCC 14028
# [10] = tested on: Staphylococcus epidermidis ATCC 12228
# [11] = tested on: Klebsiella pneumoniae ATCC 13883
# [12] = tested on: Staphylococcus aureus ATCC 25923
# [13] = tested on: Streptococcus pyogenes ATCC 19615
# [14] = tested on: Enterococcus faecalis ATCC 29212
# Escherichia coli SBS 363 = tested on: Escherichia coli SBS 363
Structure (SMILES),MIC (Pseudomonas aeruginosa) [µM],MIC (Staphylococcus aureus) [µM],MIC (Salmonella typhimurium) [µM],MIC [2] [µM],MIC (Micrococcus luteus) [µM],MIC (Proteus mirabilis) [µM],MIC (Escherichia coli) [µM],MIC (Klebsiella pneumoniae) [µM],MIC (Shigella dysenteriae) [µM],MIC (Bacillus subtilis) [µM],also measured
CC[C@H](C)[C@H](NC(=O)[C@H](C)NC(=O)[C@H](CC(C)C)NC(=O)[C@H](CC(C)C)NC(=O)[C@H](Cc1c[nH]c2ccccc12)NC(=O)[C@H](C)N)C(=O)N[C@@H](CCCN=C(N)N)C(=O)N[C@@H](CCCN=C(N)N)C(=O)N[C@@H](CCCN=C(N)N)C(N)=O [AWLLAIRRR],3.46,17.3,–,–,–,–,–,–,–,–,MIC [1]: 1.73 µM; MIC (Escherichia coli JM109): 2.6 µM
CC(C)C[C@H](NC(=O)[C@H](Cc1ccccc1)NC(=O)CNC(=O)[C@H](CC(C)C)NC(=O)[C@@H](N)Cc1ccccc1)C(=O)N[C@@H](Cc1ccccc1)C(=O)N[C@@H](CCCCN)C(=O)N[C@H](C(=O)N[C@@H](C)C(=O)N[C@@H](CO)C(=O)N[C@@H](CCCCN)C(=O)O)C(C)C [FLGFLFKVASK],> 159,9.95,≥ 159,≥ 39.8,9.95,≥ 159,79.6,79.6,≥ 79.6,9.95,–
CC(C)C[C@H](NC(=O)[C@H](C)NC(=O)[C@H](Cc1c[nH]c2ccccc12)NC(=O)[C@H](CCCCN)NC(=O)[C@@H]1CCCN1C(=O)[C@H](CC(C)C)NC(=O)[C@@H](N)Cc1ccccc1)C(=O)N[C@@H](CCCCN)C(=O)N[C@@H](Cc1c[nH]c2ccccc12)C(=O)N[C@@H](C)C(=O)N[C@@H](C)C(=O)N[C@@H](CCCCN)C(N)=O [FLPKWALKWAAK],–,–,–,–,–,–,–,–,–,–,MIC [3]: ≥ 512 µM
CC[C@H](C)[C@H](N)C(=O)N[C@@H](CC(N)=O)C(=O)N[C@@H](Cc1c[nH]c2ccccc12)C(=O)N[C@@H](CCCCN)C(=O)N[C@@H](CCCCN)C(=O)N[C@H](C(=O)N[C@@H](C)C(=O)N[C@@H](CCC(=O)O)C(=O)N[C@H](C(=O)NCC(=O)N[C@@H](CCCCN)C(=O)N[C@@H](CCC(N)=O)C(=O)N[C@H](C(=O)N[C@@H](CC(C)C)C(=O)N[C@@H](CO)C(=O)N[C@@H](C)C(=O)N[C@@H](CC(C)C)C(N)=O)C(C)C)[C@@H](C)CC)[C@@H](C)CC [INWKKIAEIGKQVLSAL],–,–,–,–,–,–,–,–,–,–,MIC [4]: 1.05 µM; MIC (Escherichia coli JM109): 4.19 µM
CC(C)C[C@H](NC(=O)[C@H](CC(C)C)NC(=O)[C@H](Cc1c[nH]c2ccccc12)NC(=O)[C@H](CCCCN)NC(=O)[C@H](CC(C)C)NC(=O)[C@@H](N)CC(C)C)C(=O)N[C@@H](CCCCN)C(N)=O [LLKWLLK],–,–,–,–,–,–,–,–,–,–,MIC [5]: ≥ 110 µM; MIC [6]: ≥ 219 µM; MIC [4]: 27.4 µM; MIC [7]: 110 µM; MIC [1]: 27.4 µM; MIC [8]: 110 µM; MIC [9]: 219 µM; MIC [10]: 110 µM
CC[C@H](C)[C@@H]1NC(=O)[C@H](CO)NC(=O)[C@H](CCCCN)NC(=O)[C@@H]2CSSC[C@@H](C(=O)N[C@@H](CC(=O)O)C(=O)NCC(=O)N[C@@H](CCC(N)=O)C(=O)N[C@H](C(=O)N[C@H](C(=O)N[C@H](C(=O)N[C@@H](CC(N)=O)C(=O)N[C@@H](CO)C(=O)N[C@H]3CSSC[C@@H]4NC(=O)[C@H](CCCN=C(N)N)NC(=O)CNC(=O)[C@H](Cc5ccccc5)NC(=O)[C@H](CCCCN)NC(=O)[C@H](CCCN=C(N)N)NC(=O)[C@H](CCCCN)NC(=O)[C@H](CSSC[C@@H](C(=O)N[C@@H](Cc5ccccc5)C(=O)N[C@@H](Cc5ccccc5)C(=O)O)NC(=O)[C@H](CCC(=O)O)NC(=O)[C@H]([C@@H](C)O)NC(=O)[C@H]([C@@H](C)CC)NC(=O)[C@H](Cc5ccccc5)NC(=O)CNC(=O)[C@H](CC(=O)O)NC(=O)[C@H](CO)NC4=O)NC(=O)[C@H](CC(=O)O)NC(=O)[C@H](CCC(=O)O)NC3=O)[C@@H](C)CC)[C@@H](C)O)[C@@H](C)O)NC(=O)[C@H](CO)NC(=O)[C@H](C(C)C)NC(=O)CNC(=O)[C@H](CCCCN)NC(=O)[C@H](CCCN=C(N)N)NC(=O)[C@H](CC(N)=O)NC(=O)[C@H](CC(C)C)NC(=O)[C@H](Cc3ccc(O)cc3)NC(=O)CNC(=O)[C@H](Cc3ccc(O)cc3)NC(=O)CNC(=O)[C@H](CSSC[C@H](NC(=O)[C@@H](NC(=O)[C@@H]3CCCN3C(=O)[C@H](C)NC(=O)[C@H](Cc3ccc(O)cc3)NC(=O)[C@H](C)NC(=O)[C@H](Cc3ccccc3)NC(=O)[C@@H](NC(=O)[C@@H](N)CCSC)C(C)C)[C@@H](C)O)C(=O)N[C@@H](C)C(=O)N[C@@H](CCCN=C(N)N)C(=O)N2)NC(=O)[C@H](Cc2ccc(O)cc2)NC(=O)[C@H](CCCN=C(N)N)NC(=O)[C@H](C)NC(=O)CNC1=O [MVFAYAPTCARCKSIGARYCGYGYLNRKGVSCDGQTTINSCEDCKRKFGRCSDGFITECFF],–,–,–,–,≥ 100,–,–,–,–,–,MIC (Escherichia coli SBS 363): ≥ 35.4 µM

# Now from value to compound, other results behind:
MIC (Pseudomonas aeruginosa) [µM],MIC (Staphylococcus aureus) [µM],MIC (Salmonella typhimurium) [µM],MIC [2] [µM],MIC (Micrococcus luteus) [µM],MIC (Proteus mirabilis) [µM],MIC (Escherichia coli) [µM],MIC (Klebsiella pneumoniae) [µM],MIC (Shigella dysenteriae) [µM],MIC (Bacillus subtilis) [µM],Structure (SMILES),also measured
167,20.9,≥ 167,≥ 83.7,10.5,≥ 167,83.7,167,≥ 83.7,20.9,CC(C)C[C@H](NC(=O)[C@H](C)NC(=O)CNC(=O)[C@H](CC(C)C)NC(=O)[C@@H](N)Cc1ccccc1)C(=O)N[C@@H](Cc1ccccc1)C(=O)N[C@@H](CCCCN)C(=O)N[C@@H](CC(C)C)C(=O)N[C@@H](C)C(=O)N[C@@H](CO)C(=O)N[C@@H](CCCCN)C(=O)O [FLGALFKLASK],–
77.2,2.39,≥ 38.6,9.65,19.3,≥ 154,19.3,9.65,9.65,4.86,CC(C)C[C@H](NC(=O)[C@H](Cc1c[nH]c2ccccc12)NC(=O)CNC(=O)[C@H](CC(C)C)NC(=O)[C@@H](N)Cc1ccccc1)C(=O)N[C@@H](Cc1ccccc1)C(=O)N[C@@H](CCCCN)C(=O)N[C@H](C(=O)N[C@@H](C)C(=O)N[C@@H](CO)C(=O)N[C@@H](CCCCN)C(=O)O)C(C)C [FLGWLFKVASK],–
> 141,> 141,≥ 141,≥ 141,≥ 141,≥ 141,> 141,> 141,≥ 141,≥ 141,CC(C)C[C@H](NC(=O)[C@@H](NC(=O)[C@H](CCCCN)NC(=O)[C@H](CO)NC(=O)[C@H](C)NC(=O)[C@@H](NC(=O)[C@H](CCCCN)NC(=O)[C@H](Cc1ccccc1)NC(=O)[C@@H](N)CC(C)C)C(C)C)C(C)C)C(=O)N1CCC[C@H]1C(=O)N[C@@H](CO)C(=O)N[C@H](C(=O)N[C@@H](CCCCN)C(=O)O)C(C)C [LFKVASKVLPSVK],–
–,–,–,–,–,–,100,–,–,≥ 100,CC[C@H](C)[C@H](NC(=O)[C@@H]1CCCN1C(=O)[C@H](CC(C)C)NC(=O)[C@@H](N)CC(C)C)C(=O)N[C@H](C(=O)NCC(=O)N[C@@H](CC(N)=O)C(=O)N[C@@H](CC(C)C)C(=O)N[C@@H](CC(C)C)C(=O)N[C@@H](CCCCN)C(=O)N[C@@H](CO)C(=O)N[C@@H](CC(C)C)C(=O)N[C@@H](CC(C)C)C(=O)NCC(=O)N[C@@H](C)C(=O)N[C@@H](CCCCN)C(=O)N[C@@H](CCCN=C(N)N)C(=O)N[C@@H](CCCCN)C(=O)N[C@@H](CCCN=C(N)N)C(=O)N[C@@H](C)C(=O)NCC(N)=O)C(C)C [LLPIVGNLLKSLLGAKRKRAG],MIC [11]: ≥ 200 µM; MIC [12]: 100 µM; MIC [13]: ≥ 200 µM; MIC [8]: 100 µM; MIC [9]: > 200 µM; MIC [14]: > 200 µM
